How the values were obtained:
Test in all cases: relative viability (nuclei count vs DMSO), 5 days (fraction); higher = more cells survive
[1] = compound: C1=CC=C(C(=C1)C2=CC=C(C=C2)C3=CSC4=C3C(=C(C(=O)N4)C#N)O)O + CCNC(=O)c1noc(-c2cc(C(C)C)c(O)cc2O)c1-c1ccc(CN2CCOCC2)cc1 [Luminespib] (partner 0.01 µM)
Method in brief: (§1)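 Five library-drug doses in √10 steps were combined with a fixed anchor-drug dose, or a single drug was given alone, by pin tool to lung cancer cell lines in 1536-well plates the day after seeding. Nuclei were stained and counted after 5 days. Relative viability is the nuclei count in treated wells over that in vehicle wells, taken as the median of duplicate plates.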

[2] = compound: C1=CC=C(C(=C1)C2=CC=C(C=C2)C3=CSC4=C3C(=C(C(=O)N4)C#N)O)O + Nc1nc2[nH]cc(CCc3ccc(C(=O)N[C@@H](CCC(=O)O)C(=O)O)cc3)c2c(=O)[nH]1 [Pemetrexed] (partner 0.2 µM)
Method in brief: as §1

TGX 221 + Foretinib = compound: CC1=CN2C(=O)C=C(N=C2C(=C1)C(C)NC3=CC=CC=C3)N4CCOCC4 [TGX 221] + COc1cc2c(Oc3ccc(NC(=O)C4(C(=O)Nc5ccc(F)cc5)CC4)cc3F)ccnc2cc1OCCCN1CCOCC1 [Foretinib] (partner 0.25 µM)
Method in brief: as §1

Ricolinostat + OSI-027 = compound: O=C(CCCCCCNC(=O)c1cnc(N(c2ccccc2)c2ccccc2)nc1)NO [Ricolinostat] + COc1cccc2cc(-c3nc([C@H]4CC[C@H](C(=O)O)CC4)n4ncnc(N)c34)[nH]c12 [OSI-027] (partner 0.5 µM)
Method in brief: as §1

| Cell Line | relative viability ([1]; first compound 0.08 µM) | relative viability ([1]; first compound 0.253 µM) | relative viability ([1]; first compound 0.8 µM) | relative viability ([1]; first compound 2.53 µM) | relative viability ([1]; first compound 8 µM) | relative viability ([2]; first compound 0.08 µM) | relative viability ([2]; first compound 0.253 µM) | relative viability ([2]; first compound 0.8 µM) | relative viability ([2]; first compound 2.53 µM) | relative viability ([2]; first compound 8 µM) | relative viability (TGX 221 + Foretinib; first compound 0.08 µM) | relative viability (TGX 221 + Foretinib; first compound 0.253 µM) | relative viability (TGX 221 + Foretinib; first compound 0.8 µM) | relative viability (TGX 221 + Foretinib; first compound 2.53 µM) | relative viability (TGX 221 + Foretinib; first compound 8 µM) | relative viability (Ricolinostat + OSI-027; first compound 0.08 µM) | relative viability (Ricolinostat + OSI-027; first compound 0.253 µM) | relative viability (Ricolinostat + OSI-027; first compound 0.8 µM) | relative viability (Ricolinostat + OSI-027; first compound 2.53 µM) |
| --- | --- | --- | --- | --- | --- | --- | --- | --- | --- | --- | --- | --- | --- | --- | --- | --- | --- | --- | --- |
| NCI-H2126 | 0.894 | 0.895 | 0.89 | 0.948 | 0.928 | 0.837 | 0.823 | 0.694 | 0.664 | 0.513 | 1.19 | 1.11 | 1 | 1.05 | 1.05 | 0.489 | 0.847 | 0.658 | 0.692 |
| NCI-H2170 | 0.594 | 1.11 | 0.992 | 0.752 | 0.609 | 0.279 | 0.268 | 0.285 | 0.254 | 0.261 | 0.995 | 1.1 | 0.991 | 0.945 | 0.978 | 0.656 | 0.718 | 0.725 | 0.891 |
| NCI-H2228 | 0.14 | 0.163 | 0.105 | 0.135 | 0.186 | 0.371 | 0.454 | 0.351 | 0.332 | 0.367 | 0.738 | 0.853 | 0.787 | 0.754 | 0.72 | 0.593 | 0.496 | 0.616 | 0.286 |
| NCI-H2342 | 0.742 | 0.816 | 0.788 | 0.718 | 0.68 | 0.769 | 0.938 | 0.713 | 0.755 | 0.712 | 1.03 | 1.02 | 1.03 | 0.903 | 0.985 | 0.515 | 0.588 | 0.575 | 0.633 |
| NCI-H2347 | 0.354 | 0.404 | 0.405 | 0.37 | 0.492 | 0.367 | 0.429 | 0.403 | 0.444 | 0.406 |  | 0.879 | 0.769 | 0.622 | 0.49 | 0.293 | 0.451 | 0.364 | 0.319 |
| NCI-H2405 | 0.723 | 0.855 | 0.675 | 0.604 | 0.567 | 1.01 |  | 1.07 | 0.975 | 0.948 | 1.01 | 0.99 | 1.04 | 0.897 | 0.863 | 0.481 | 0.71 | 0.671 | 0.568 |
| NCI-H3122 | 0.106 | 0.0689 | 0.0946 | 0.105 | 0.0854 | 0.19 | 0.201 | 0.22 | 0.213 | 0.19 | 0.967 | 0.931 | 0.957 | 0.949 | 1.01 |  | 0.992 | 0.99 | 1.06 |
| PC-3 [JPC-3] | 0.564 | 0.774 | 0.787 | 0.679 | 0.74 | 1.08 | 1.19 | 1.06 | 0.942 | 0.98 | 1 | 1.03 | 1.05 | 0.947 | 0.972 |  | 0.768 | 0.708 | 0.491 |
| PC-14 |  | 0.185 | 0.105 | 0.162 | 0.142 | 0.151 | 0.156 | 0.153 | 0.125 | 0.146 | 1.04 | 0.953 | 0.934 | 1.06 | 0.858 | 0.728 | 0.72 | 0.769 | 0.511 |
| RERF-LC-KJ | 1.34 | 1.37 | 1.44 | 1.17 | 0.843 | 0.468 | 0.521 | 0.485 | 0.441 | 0.552 | 0.87 | 0.879 | 0.964 | 0.825 | 0.757 | 0.578 | 0.569 | 0.47 | 0.438 |
| SK-LU-1 | 0.195 | 0.217 | 0.217 | 0.175 | 0.218 | 0.933 | 0.943 | 0.918 | 1.03 | 0.806 | 0.808 | 0.703 | 0.768 | 0.63 | 0.657 | 0.321 | 0.431 | 0.353 | 0.269 |
| SK-MES-1 | 0.766 | 0.822 | 0.763 | 0.622 | 0.633 | 1.02 | 1.03 | 1.02 | 0.987 | 1.02 | 0.994 | 0.733 | 0.863 | 0.75 | 0.558 | 0.407 | 0.561 | 0.534 | 0.558 |
| SW 900 | 0.161 | 0.174 | 0.186 | 0.135 | 0.192 |  | 0.487 | 0.453 | 0.464 | 0.47 | 0.682 | 0.651 | 0.788 | 0.546 | 0.726 | 0.462 | 0.808 | 0.562 | 0.535 |
| SW 1573 | 0.192 | 0.105 | 0.147 | 0.219 | 0.275 | 0.61 | 0.982 | 0.788 | 0.851 | 0.728 | 0.889 | 0.881 | 0.975 | 0.822 | 0.851 | 0.588 | 0.612 | 0.647 | 0.501 |
| UMC-11 | 0.764 | 1.04 | 1.03 | 1.06 | 0.839 |  | 0.577 | 0.878 | 0.83 | 0.628 | 0.934 | 0.932 | 1 | 1.06 | 1.03 | 0.406 | 0.517 | 0.487 | 0.235 |

Reference: the supplement of paper PMC10307832
